Measured values reported in the NIST ThermoML archive (doi:10.1021/acs.jced.6b00430).

Assay: xn = mol fraction of the nth substance listed
Conditions: 100 kPa, Liquid; for mass density: Vibrating tube method; for electrical conductivity: Alternating current cell with electrodes; for viscosity: Concentric cylinders viscometry

O=[PH](O)O [phosphonic acid] + CN(C)C=O
Conditions | electrical conductivity [S/m] | mass density [kg/m3] | viscosity [mPa·s]
318.15 K, x1 = 0.421 | – | 1170.67 | –
318.15 K, x1 = 0.4479 | – | 1189.61 | –
318.15 K, x1 = 0.4707 | – | 1204.42 | –
318.15 K, x1 = 0.493 | – | 1218.59 | –
318.15 K, x1 = 0.5074 | – | 1227.51 | –
318.15 K, x1 = 0.5196 | – | 1237.92 | –
318.15 K, x1 = 0.5429 | – | 1253.45 | –
318.15 K, x1 = 0.5724 | – | 1275.06 | –
318.15 K, x1 = 0.5925 | – | 1289.1 | –
318.15 K, x1 = 0.6245 | – | 1311.81 | –
318.15 K, x1 = 0.6554 | – | 1339.01 | –
318.15 K, x1 = 0.6753 | – | 1347.93 | –
318.15 K, x1 = 0.6923 | – | 1362.29 | –
318.15 K, x1 = 0.7142 | – | 1382.56 | –
318.15 K, x1 = 0.725 | – | 1385.03 | –
318.15 K, x1 = 0.7592 | – | 1416.55 | –
318.15 K, x1 = 0.7694 | – | 1427.77 | –
318.15 K, x1 = 0.7845 | – | 1434.51 | –
328.15 K, x1 = 0.0911 | – | 962.58 | –
328.15 K, x1 = 0.1181 | 0.0815 | – | –
328.15 K, x1 = 0.1365 | – | 987.46 | –
328.15 K, x1 = 0.1798 | – | 1011.93 | –
328.15 K, x1 = 0.1829 | – | 1013.72 | –
328.15 K, x1 = 0.1973 | – | – | 1.92
328.15 K, x1 = 0.2293 | – | 1040.86 | –
328.15 K, x1 = 0.2507 | – | – | 2.88
328.15 K, x1 = 0.291 | – | 1078.19 | –
328.15 K, x1 = 0.2984 | 0.173 | – | 4.07
328.15 K, x1 = 0.3115 | – | – | 4.29
328.15 K, x1 = 0.3298 | 0.183 | 1102.77 | –
328.15 K, x1 = 0.3442 | – | 1111.65 | –
328.15 K, x1 = 0.3491 | – | – | 6.02
328.15 K, x1 = 0.3712 | – | 1129.07 | –
328.15 K, x1 = 0.3937 | – | 1143.78 | –
328.15 K, x1 = 0.3968 | 0.275 | – | 8.65
328.15 K, x1 = 0.3988 | – | – | 8.5
328.15 K, x1 = 0.4107 | – | 1155.04 | 9.62
328.15 K, x1 = 0.421 | – | 1161.92 | –
328.15 K, x1 = 0.4479 | 0.316 | 1180.89 | 12.3
328.15 K, x1 = 0.4707 | – | 1195.74 | –
328.15 K, x1 = 0.493 | – | 1211.17 | –
328.15 K, x1 = 0.4968 | – | – | 16.2
328.15 K, x1 = 0.5074 | – | 1221.28 | 16
328.15 K, x1 = 0.5196 | – | 1229.86 | –
328.15 K, x1 = 0.5429 | – | 1246.5 | –
328.15 K, x1 = 0.5503 | – | – | 22
328.15 K, x1 = 0.5724 | – | 1267.84 | –
328.15 K, x1 = 0.5761 | 0.512 | – | 24.9
328.15 K, x1 = 0.5925 | – | 1282.63 | –
328.15 K, x1 = 0.5993 | – | – | 25.5
328.15 K, x1 = 0.6245 | – | 1306.4 | –
328.15 K, x1 = 0.6261 | – | – | 29.5
328.15 K, x1 = 0.6316 | 0.71 | – | 30.1
328.15 K, x1 = 0.6478 | – | – | 32.2
328.15 K, x1 = 0.6554 | 0.802 | 1330.73 | 32
328.15 K, x1 = 0.682 | 1.07 | – | 34.4
328.15 K, x1 = 0.7142 | – | 1375.29 | 37.1
328.15 K, x1 = 0.725 | – | 1383.85 | –
328.15 K, x1 = 0.7592 | – | 1411.1 | –
328.15 K, x1 = 0.7694 | 1.77 | 1419.7 | 39.8
328.15 K, x1 = 0.7832 | 1.91 | – | 40.5
328.15 K, x1 = 0.7845 | – | 1430.74 | –
338.15 K, x1 = 0.0911 | – | 954.96 | –
338.15 K, x1 = 0.1365 | – | 979.11 | –
338.15 K, x1 = 0.1798 | – | 1003.68 | –
338.15 K, x1 = 0.1829 | – | 1004.95 | –
338.15 K, x1 = 0.1973 | – | – | 1.67
338.15 K, x1 = 0.2293 | – | 1032.82 | –
338.15 K, x1 = 0.2507 | – | – | 2.45
338.15 K, x1 = 0.291 | – | 1068.59 | –
338.15 K, x1 = 0.2984 | 0.212 | – | 3.49
338.15 K, x1 = 0.3115 | – | – | 3.66
338.15 K, x1 = 0.3298 | 0.226 | 1093.82 | –
338.15 K, x1 = 0.3442 | – | 1102.06 | –
338.15 K, x1 = 0.3491 | – | – | 5.02
338.15 K, x1 = 0.3712 | – | 1119.72 | –
338.15 K, x1 = 0.3937 | – | 1133.99 | –
338.15 K, x1 = 0.3968 | 0.351 | – | 7
338.15 K, x1 = 0.3988 | – | – | 6.98
338.15 K, x1 = 0.4107 | – | 1155.74 | 7.75
338.15 K, x1 = 0.421 | – | 1160.23 | –
338.15 K, x1 = 0.4479 | 0.356 | 1172.2 | 9.91
338.15 K, x1 = 0.4707 | – | 1187.28 | –
338.15 K, x1 = 0.493 | – | 1201.35 | –
338.15 K, x1 = 0.4968 | – | – | 12.7
338.15 K, x1 = 0.5074 | – | 1210.34 | 11.6
338.15 K, x1 = 0.5196 | – | 1220.86 | –
338.15 K, x1 = 0.5429 | – | 1236.41 | –
338.15 K, x1 = 0.5503 | – | – | 17.2
338.15 K, x1 = 0.5724 | – | 1258.27 | –
338.15 K, x1 = 0.5761 | 0.642 | – | 18.7
338.15 K, x1 = 0.5925 | – | 1272.25 | –
338.15 K, x1 = 0.5993 | – | – | 19.2
338.15 K, x1 = 0.6245 | – | 1295.1 | –
338.15 K, x1 = 0.6261 | – | – | 22.6
338.15 K, x1 = 0.6316 | 0.891 | – | 22.3
338.15 K, x1 = 0.6478 | – | – | 23.8
338.15 K, x1 = 0.6554 | 1.06 | 1322.46 | 23.6
338.15 K, x1 = 0.6753 | – | 1331.43 | –
338.15 K, x1 = 0.682 | 1.39 | – | 25.2
338.15 K, x1 = 0.6923 | – | 1345.85 | –
338.15 K, x1 = 0.7142 | – | 1374.38 | 27
338.15 K, x1 = 0.725 | – | 1368.62 | –
338.15 K, x1 = 0.7592 | – | 1400.4 | –
338.15 K, x1 = 0.7694 | 2.29 | 1411.68 | 28.6
338.15 K, x1 = 0.7832 | 2.42 | – | 29.1
338.15 K, x1 = 0.7845 | – | 1422.74 | –
348.15 K, x1 = 0.0911 | – | 945.43 | –
348.15 K, x1 = 0.1365 | – | 969.77 | –
348.15 K, x1 = 0.1798 | – | 994.4 | –
348.15 K, x1 = 0.1829 | – | 995.9 | –
348.15 K, x1 = 0.2293 | – | 1023.58 | –
348.15 K, x1 = 0.291 | – | 1059.58 | –
348.15 K, x1 = 0.3298 | – | 1084.14 | –
348.15 K, x1 = 0.3442 | – | 1093.18 | –
348.15 K, x1 = 0.3712 | – | 1110.71 | –
348.15 K, x1 = 0.3937 | – | 1125.23 | –
348.15 K, x1 = 0.4107 | – | 1147 | –
348.15 K, x1 = 0.421 | – | 1150.66 | –
348.15 K, x1 = 0.4479 | – | 1158.49 | –
348.15 K, x1 = 0.4707 | – | 1177.52 | –
348.15 K, x1 = 0.493 | – | 1192.77 | –
348.15 K, x1 = 0.5074 | – | 1201.8 | –
348.15 K, x1 = 0.5196 | – | 1210.75 | –
348.15 K, x1 = 0.5429 | – | 1227.92 | –
348.15 K, x1 = 0.5724 | – | 1254.23 | –
348.15 K, x1 = 0.5925 | – | 1263.87 | –
348.15 K, x1 = 0.6245 | – | 1286.78 | –
348.15 K, x1 = 0.6554 | – | 1310.01 | –
348.15 K, x1 = 0.6753 | – | 1324.98 | –
348.15 K, x1 = 0.6923 | – | 1337.69 | –
348.15 K, x1 = 0.7142 | – | 1366.2 | –
348.15 K, x1 = 0.725 | – | 1373 | –
348.15 K, x1 = 0.7592 | – | 1394.6 | –
348.15 K, x1 = 0.7694 | – | 1401.02 | –
348.15 K, x1 = 0.7845 | – | 1410.65 | –
